Experimental data from patent publication US5607926A, “Cephalosporin antibiotics” (Microcide Pharmaceuticals, Inc., priority 1995, dated 1997).
Converted amounts (≈) assume the structure as drawn.

What was measured:
S. aureus ATCC 29213 = test: In vitro antibacterial evaluation, MIC by agar dilution, S. aureus ATCC 29213; type: cell-based; details: Staphylococcus aureus, ATCC29213
How it was run: (§1)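 Minimum inhibitory concentrations came from the NCCLS agar dilution method in Mueller-Hinton agar. Each isolate received about 10^4 cfu per spot, and plates were read after 16-20 hours at 35°-36° C.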

[1] = system: methicillinsusceptible S. aureus strain ATCC 13709; test: Challenge strain MIC; type: cell-based; details: Staphylococcus aureus, ATCC13709, S. aureus ATCC 13709; read-out: Challenge str MIC
Procedure: The compounds of the invention were evaluated against several β-lactamresistant bacteria strains by determining the minimum inhibitory concentration (MIC, μg/ml) of each compound with respect to each strain. The MIC, the lowest concentration of antibiotic which inhibits growth of the test organism, was determined by the agar dilution method.
To determine the MIC for bacterial isolates, the test compound was incorporated in a series of two-fold dilutions into liquified Mueller-Hinton agar. Upon solidification, a number of different bacterial strains were spot inoculated with a replicating device onto the agar surface. […] The procedures used in these studies have been standardized by the National Committee for Clinical Laboratory Standards (NCCLS), as per the NCCLS publication entitled METHODS FOR DILUTION ANTIMICROBIAL SUSCEPTIBILITY TESTS (1991), which is incorporated herein by reference.
Aliquots of antimicrobial agents were prepared in phosphate buffered saline (PBS) at pH 7.2. Tween 20 or DMSO was used as a solubilizing vehicle as needed. Standard methods of vortexing, sonicating and gentle heat were used to facilitate solubilizing the test agent. Typically, the concentration of the stock solution was 10× that of the highest drug concentration tested. A 1.28 mg/mL stock solution was used with a subsequent highest working concentration of 128 μg/mL. Serial two-fold dilutions were done through ≤0.25 μg/mL. Each drug level was tested in duplicate. Two-fold drug dilutions were done in sterile 50 mL tubes with a final drug volume of 5 mL. Upon the addition of 45 mL of molten agar, a 10-fold dilution resulted. Two, 25 mL. plates were then poured into 15×150 mm square Petri plates with grids and allowed to harden.
A control plate with a reference drug, either cefotaxime, vancomycin or imipenem, was used as the positive growth control. Stock concentrations of reference antibiotics were prepared and frozen at -80° C. Upon preparation, the control plates were sealed and stored in the refrigerator for up to 1 week prior to use; however, imipenem control plates had to be prepared just prior to use. All test plates were used within 24 hours of preparation.
Satisfactory results were obtained where the inoculum contained about 10^4 colony forming units (cfu) ±0.5 logs. Starting with pure cultures of the test isolates on agar plates, a few isolated colonies were transferred to a tube of nutrient broth and allowed to grow 4-6 hours at 35°-36° C. to reach log-phase growth. Dropwise addition of the broth culture to PBS was done to match a 0.5 McFarland turbidity standard equal to 10^8 cfu/mL. This was further diluted ten-fold in PBS to reach a working inoculum concentration of 10^7 cfu/mL. When 1 μL of the working inoculum was applied to the agar surface a concentration of about 10^4 cfu per spot was obtained.
Disposable sterile 1 μL loops were used to inoculate test plates, with each isolate in a designated grid on the agar plate. An alternate method of inoculation involved the use of a replica plater, a device with 48 steel pins allowing the simultaneous inoculation of multiple isolates. After the spots had dried, the plates were incubated at 35°-36° C. for 16-20 hours. Endpoints were assessed as the minimum inhibitory concentration (MIC) of antimicrobial agent.
(§2) data reported for challenge with methicillinsusceptible S. aureus strain

E. coli ATCC 25922 = test: In vitro antibacterial evaluation, MIC by agar dilution, E. coli ATCC 25922; type: cell-based; details: Escherichia coli, ATCC25922, read-out: MIC
How it was run: as §1

[2] = system: S. aureus 76 (Meth^R)(lac^+); test: In vitro antibacterial evaluation, MIC by agar dilution, S. aureus 76; type: cell-based; details: Staphylococcus aureus, read-out: MIC
How it was run: as §1

[3] = system: methicillinsusceptible S. aureus strain ATCC 13709; test: In vivo antibacterial evaluation, murine model for lethal bacteremic peritonitis; set-up: species or system S. aureus in female Swiss-Webster mice; details: Staphylococcus aureus, ATCC13709, sc, 72 h, two equal SC doses at challenge and 2 hours later, mice, probit, read-out: ED50
Procedure: Groups of 5 female Swiss-Webster mice (Simonsen, Gilroy, Calif.) each are challenged by the intraperitoneal (IP) route with ten-fold increments of a bacterial inoculum. This permits calculation of the mean lethal dose (LD50) and the LD100. For preliminary evaluation of a new antibiotic, mice are challenged IP with an LD100 titer of bacteria. In two equal doses administered at the time of bacterial challenge and 2 hours later, groups of 10 mice each are treated subcutaneously with two-fold increments of the test drug and an antibiotic of known efficacy in mice and humans (i.e., positive control). Mice are observed for 72 h. Those alive at 72 h are considered long term survivors. The total drug dose in mg/kg that protects 50% of mice in a group from death is termed the mean protective dose (PD50). PD50 s are similarly determined for several pathogens. The quantitative endpoints for the new drug are then compared with those obtained with reference antibiotics.
Six ten-fold dilutions of inoculum suspended in 0.5 mL of sterilized 7% hog gastric mucin (Sigma) are injected IP in groups of 5 mice each. A control group of 5 mice receive mucin alone. Mice are observed for 72 h. Those alive at 72 h are considered long term survivors. The mean lethal dose (LD50) and 100% lethal dose (LD100) are determined by the probit test.
For antibiotic efficacy studies, mice are challenged IP with bacterial titers that will afford an LD100 for the test strain. In two equal doses administered at the time of bacterial challenge and 2 hours later, groups of 10 mice each are treated by the subcutaneous route (SC) with twofold increments of the test antibiotic; another group is treated similarly with a reference antibiotic of known efficacy in animals and man. Drug doses can range from 0.01 to 512 mg/kg. If the drug is poorly soluble, Tween 20 or propylene glycol will be employed to solubilize the drug. Animals are observed for 72 h. The 50% protective dose (PD50) is calculated in mg/kg by the probit method. The PD50 is the same as the 50% effective dose (ED50) and the 50% curative dose (CD50). Samples of blood from the hearts of all animals that die and from half the mice that survive are cultured on brain-heart infusion agar. Animals that received a protective dosage of the test drug will be alive at 72 h, although they may appear moderately ill to very ill during the observation period. […] Most of these mice will die within 6 to 48 h. Those alive at 72 h will be considered long term survivors.
as §2

E. faecium ATCC 35667 = test: In vitro antibacterial evaluation, MIC by agar dilution, E. faecium ATCC 35667; type: cell-based; details: Enterococcus faecium, ATCC35667, read-out: MIC
How it was run: as §1

[4] = system: S. aureus Col8A (Meth^S)(lac^-); test: In vitro antibacterial evaluation, MIC by agar dilution, S. aureus Col8A; type: cell-based; details: Staphylococcus aureus
How it was run: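 Agar dilution per NCCLS (1991): two-fold dilutions from 128 μg/mL down to ≤0.25 μg/mL in Mueller-Hinton agar, each level in duplicate. Spots of about 10^4 cfu of log-phase culture; 16-20 h at 35°-36° C. MIC in μg/ml is the lowest concentration inhibiting growth.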

S. haemolyticus (Meth^R) = test: In vitro antibacterial evaluation, MIC by agar dilution, S. haemolyticus; type: cell-based; details: Staphylococcus haemolyticus, read-out: MIC
How it was run: as §1

[5] = system: S. epidermidis ATCC 31432; test: In vitro antibacterial evaluation, MIC by agar dilution, S. epidermidis ATCC 31432; type: cell-based; details: Staphylococcus epidermidis, ATCC31432
How it was run: as §1

P. aeruginosa ATCC 27853 = test: In vitro antibacterial evaluation, MIC by agar dilution, P. aeruginosa ATCC 27853; type: cell-based; details: Pseudomonas aeruginosa, ATCC27853, read-out: MIC
How it was run: as §1

S. aureus ATCC 25923 = test: In vitro antibacterial evaluation, MIC by agar dilution, S. aureus ATCC 25923; type: cell-based; details: Staphylococcus aureus, ATCC25923
How it was run: as §1

E. faecalis ATCC 29212 = test: In vitro antibacterial evaluation, MIC by agar dilution, E. faecalis ATCC 29212; type: cell-based; details: Enterococcus faecalis, ATCC29212; E. faecalis ATCC 29212; read-out: MIC
How it was run: as §1

Compound: N#CCC(=O)N[C@@H]1C(=O)N2C(C(=O)O)=C(Sc3ccccc3I)CS[C@H]12 [Cmpd 17, (7R)-7-[(Cyanoacetyl)amino]-3-(o-iodophenylthio)-3-cephem-4-carboxylic acid]
- MIC (S. aureus ATCC 29213): < 0.25 mg/L
- MIC [1]: 0.125 mg/L (≈ 0.249 µM)
- MIC (E. coli ATCC 25922): > 64 mg/L
- MIC [2]: 4 mg/L (≈ 7.98 µM)
- ED50 [3]: 3.41 mg/kg
- MIC (E. faecium ATCC 35667): 1 mg/L (≈ 1.99 µM)
- MIC [4]: < 0.25 mg/L
- MIC (S. haemolyticus (Meth^R)): 8 mg/L (≈ 16 µM)
- MIC [5]: < 0.25 mg/L

Compound: N#Cc1ccccc1SC1=C(C(=O)O)N2C(=O)[C@@H](NC(=O)Cc3ccccc3)[C@H]2SC1 [Cmpd 41, (7R)-7-[(Phenylacetyl)amino]-3-(2-cyanophenylthio)-3-cephem-4-carboxylic acid]
- MIC (P. aeruginosa ATCC 27853): > 32 mg/L
- MIC [1]: 0.06 mg/L (≈ 0.133 µM)
- MIC (E. coli ATCC 25922): > 32 mg/L
- MIC (S. aureus ATCC 25923): < 0.25 mg/L
- MIC (E. faecalis ATCC 29212): 4 mg/L (≈ 8.86 µM)
- MIC [2]: 4 mg/L (≈ 8.86 µM)
- ED50 [3]: 1.13 mg/kg
- MIC (E. faecium ATCC 35667): 2 mg/L (≈ 4.43 µM)
- MIC [4]: < 0.25 mg/L
- MIC (S. haemolyticus (Meth^R)): 16 mg/L (≈ 35.4 µM)
- MIC [5]: < 0.25 mg/L

Compound: O=C(Cc1ccccc1)N[C@@H]1C(=O)N2C(C(=O)O)=C(Sc3cccnc3-c3ccccc3)CS[C@H]12 [Cmpd 81, (7R)-7-[(Phenylacetyl)amino]-3-(2-phenylpyridin-3-ylthio)-3-cephem-4-carboxylic acid]
- MIC (P. aeruginosa ATCC 27853): > 32 mg/L
- MIC [1]: 0.125 mg/L (≈ 0.248 µM)
- MIC (E. coli ATCC 25922): > 32 mg/L
- MIC (S. aureus ATCC 25923): < 0.25 mg/L
- MIC (E. faecalis ATCC 29212): 2 mg/L (≈ 3.97 µM)
- MIC [2]: 4 mg/L (≈ 7.94 µM)
- ED50 [3]: 8.46 mg/kg
- MIC (E. faecium ATCC 35667): 1 mg/L (≈ 1.99 µM)
- MIC [4]: < 0.25 mg/L
- MIC (S. haemolyticus (Meth^R)): 16 mg/L (≈ 31.8 µM)
- MIC [5]: < 0.25 mg/L

Compound: O=C(Cc1ccccc1)N[C@@H]1C(=O)N2C(C(=O)O)=C(Sc3ccnn3-c3ccccc3)CS[C@H]12 [Cmpd 87, (7R)-7-[(Phenylacetyl)amino]-3-(1-N-phenylpyrazol-5-ylthio)-3-cephem-4-carboxylic acid]
- MIC (P. aeruginosa ATCC 27853): > 32 mg/L
- MIC [1]: 0.06 mg/L (≈ 0.122 µM)
- MIC (E. coli ATCC 25922): > 32 mg/L
- MIC (S. aureus ATCC 25923): < 0.25 mg/L
- MIC (E. faecalis ATCC 29212): 2 mg/L (≈ 4.06 µM)
- MIC [2]: 4 mg/L (≈ 8.12 µM)
- ED50 [3]: 1.89 mg/kg
- MIC (E. faecium ATCC 35667): 1 to 2 mg/L (≈ 2.03 to 4.06 µM)
- MIC [4]: < 0.25 mg/L
- MIC (S. haemolyticus (Meth^R)): 16 mg/L (≈ 32.5 µM)
- MIC [5]: < 0.25 mg/L

Compound: O=C(CSc1ccncc1)N[C@@H]1C(=O)N2C(C(=O)O)=C(Sc3ccnn3-c3ccccc3)CS[C@H]12 [Cmpd 110, (7R)-7-[(4-pyridylthioacetyl)amino]-3-(1-N-phenylpyrazol-5-ylthio)-3-cephem-4-carboxylic acid]
- MIC (S. aureus ATCC 29213): 0.25 mg/L (≈ 0.476 µM)
- MIC (P. aeruginosa ATCC 27853): > 32 mg/L
- MIC [1]: 0.25 mg/L (≈ 0.476 µM)
- MIC (E. coli ATCC 25922): > 32 mg/L
- MIC (E. faecalis ATCC 29212): 2 mg/L (≈ 3.8 µM)
- MIC [2]: 8 mg/L (≈ 15.2 µM)
- ED50 [3]: 3.45 mg/kg
- MIC (E. faecium ATCC 35667): 2 mg/L (≈ 3.8 µM)
- MIC [4]: 0.25 mg/L (≈ 0.476 µM)
- MIC (S. haemolyticus (Meth^R)): > 16 mg/L
